Data taken from PubChem BioAssay (NCI).
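Briefly, cells in 96-well plates were exposed to five compound concentrations for 48 h, and endpoints were estimated by linear interpolation. At the GI50, growth is halved. TGI marks complete inhibition of growth.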

Tests used:
Assay in all cases: growth of human tumour cells (NCI), 48 h
HCT-15 colon = test system: HCT-15 colon
HCT-116 colon = test system: HCT-116 colon
SF-295 CNS = test system: SF-295 CNS
A498 renal = test system: A498 renal
HCC-2998 colon = test system: HCC-2998 colon
CAKI-1 renal = test system: CAKI-1 renal
NCI-H460 lung = test system: NCI-H460 lung
HS 578T breast = test system: HS 578T breast
TK-10 renal = test system: TK-10 renal
NCI-H522 lung = test system: NCI-H522 lung
OVCAR-4 ovarian = test system: OVCAR-4 ovarian
RPMI-8226 leukemia = test system: RPMI-8226 leukemia
U251 CNS = test system: U251 CNS
NCI-H226 lung = test system: NCI-H226 lung
OVCAR-5 ovarian = test system: OVCAR-5 ovarian
MCF7 breast = test system: MCF7 breast
MDA-MB-435 = test system: MDA-MB-435
DU-145 prostate = test system: DU-145 prostate
COLO 205 colon = test system: COLO 205 colon
KM12 colon = test system: KM12 colon
SF-268 CNS = test system: SF-268 CNS
SF-539 CNS = test system: SF-539 CNS
EKVX NSCLC = test system: EKVX NSCLC
M14 melanoma = test system: M14 melanoma
SW-620 colon = test system: SW-620 colon
SK-MEL-5 melanoma = test system: SK-MEL-5 melanoma
UACC-62 melanoma = test system: UACC-62 melanoma
UO-31 renal = test system: UO-31 renal
SNB-75 CNS = test system: SNB-75 CNS
SNB-19 CNS = test system: SNB-19 CNS
A549 NSCLC = test system: A549 NSCLC
NCI/ADR-RES ovarian = test system: NCI/ADR-RES ovarian
ACHN renal = test system: ACHN renal
K-562 leukemia = test system: K-562 leukemia
RXF 393 renal = test system: RXF 393 renal
BT-549 breast = test system: BT-549 breast
786-0 renal = test system: 786-0 renal
HOP-62 NSCLC = test system: HOP-62 NSCLC
UACC-257 melanoma = test system: UACC-257 melanoma
PC-3 prostate = test system: PC-3 prostate
IGROV1 ovarian = test system: IGROV1 ovarian
LOX IMVI melanoma = test system: LOX IMVI melanoma
SN12C renal = test system: SN12C renal
MALME-3M melanoma = test system: MALME-3M melanoma
NCI-H23 lung = test system: NCI-H23 lung
HT29 colon = test system: HT29 colon
SK-OV-3 ovarian = test system: SK-OV-3 ovarian
MOLT-4 leukemia = test system: MOLT-4 leukemia
CCRF-CEM leukemia = test system: CCRF-CEM leukemia
HOP-92 NSCLC = test system: HOP-92 NSCLC

With `N#Cc1c(NC(=O)c2ccc(F)c(Cl)c2)sc2c1CCC(=O)C2` the GI50 (HCT-15 colon) was 368 nM, the TGI (HCT-15 colon) was 2060 nM and the GI50 (HCT-116 colon) was 233 nM. For the same compound, the TGI (HCT-116 colon) was 1110 nM, the GI50 (SF-295 CNS) was 1120 nM and the TGI (SF-295 CNS) was 3.89 µM. The GI50 (A498 renal) was 2400 nM, the TGI (A498 renal) was 6.44 µM and the GI50 (HCC-2998 colon) was 1320 nM. The TGI (HCC-2998 colon) was 3.33 µM, the GI50 (CAKI-1 renal) was 302 nM and the TGI (CAKI-1 renal) was 1130 nM. The GI50 (NCI-H460 lung) was 1940 nM, the TGI (NCI-H460 lung) was over 33.3 µM and the GI50 (HS 578T breast) was 523 nM. For the same compound, the TGI (HS 578T breast) was 3.76 µM, the GI50 (TK-10 renal) was 440 nM and the TGI (TK-10 renal) was 2020 nM. The GI50 (NCI-H522 lung) was 200 nM, the TGI (NCI-H522 lung) was 671 nM and the GI50 (OVCAR-4 ovarian) was 578 nM. For the same compound, the TGI (OVCAR-4 ovarian) was 2000 nM, the GI50 (RPMI-8226 leukemia) was 155 nM and the TGI (RPMI-8226 leukemia) was 684 nM. It also gave a GI50 (U251 CNS) of 353 nM, a TGI (U251 CNS) of 1360 nM and a GI50 (NCI-H226 lung) of 2040 nM. The TGI (NCI-H226 lung) was 6.25 µM, the GI50 (OVCAR-5 ovarian) was 728 nM and the TGI (OVCAR-5 ovarian) was 3.02 µM. It also gave a GI50 (MCF7 breast) of 337 nM, a TGI (MCF7 breast) of 15 µM and a GI50 (MDA-MB-435) of 436 nM. It also gave a TGI (MDA-MB-435) of 2400 nM, a GI50 (DU-145 prostate) of 4.04 µM and a TGI (DU-145 prostate) of over 100 µM. It also gave a GI50 (COLO 205 colon) of 423 nM, a TGI (COLO 205 colon) of 1380 nM and a GI50 (KM12 colon) of 419 nM. It also gave a TGI (KM12 colon) of 1930 nM, a GI50 (SF-268 CNS) of 890 nM and a TGI (SF-268 CNS) of 6.36 µM. The GI50 (SF-539 CNS) was 312 nM, the TGI (SF-539 CNS) was 1150 nM and the GI50 (EKVX NSCLC) was 1060 nM. For the same compound, the TGI (EKVX NSCLC) was 4.8 µM, the GI50 (M14 melanoma) was 365 nM and the TGI (M14 melanoma) was 1750 nM. For the same compound, the GI50 (SW-620 colon) was 406 nM, the TGI (SW-620 colon) was 1870 nM and the GI50 (SK-MEL-5 melanoma) was 1230 nM. The TGI (SK-MEL-5 melanoma) was 2590 nM, the GI50 (UACC-62 melanoma) was 426 nM and the TGI (UACC-62 melanoma) was 1940 nM. It also gave a GI50 (UO-31 renal) of 298 nM, a TGI (UO-31 renal) of 1170 nM and a GI50 (SNB-75 CNS) of 1420 nM. The TGI (SNB-75 CNS) was 4.21 µM, the GI50 (SNB-19 CNS) was 672 nM and the TGI (SNB-19 CNS) was 10.4 µM. For the same compound, the GI50 (A549 NSCLC) was 2640 nM, the TGI (A549 NSCLC) was over 29.2 µM and the GI50 (NCI/ADR-RES ovarian) was 449 nM. The TGI (NCI/ADR-RES ovarian) was over 100 µM, the GI50 (ACHN renal) was 349 nM and the TGI (ACHN renal) was 1080 nM. The GI50 (K-562 leukemia) was 301 nM, the TGI (K-562 leukemia) was over 100 µM and the GI50 (RXF 393 renal) was 353 nM. It also gave a TGI (RXF 393 renal) of 1300 nM, a GI50 (BT-549 breast) of 223 nM and a TGI (BT-549 breast) of 696 nM. The GI50 (786-0 renal) was 389 nM, the TGI (786-0 renal) was 5.78 µM and the GI50 (HOP-62 NSCLC) was 2510 nM. The TGI (HOP-62 NSCLC) was over 28.3 µM, the GI50 (UACC-257 melanoma) was 1520 nM and the TGI (UACC-257 melanoma) was 4.26 µM. The GI50 (PC-3 prostate) was 237 nM, the TGI (PC-3 prostate) was 1350 nM and the GI50 (IGROV1 ovarian) was 592 nM. The TGI (IGROV1 ovarian) was 2380 nM, the GI50 (LOX IMVI melanoma) was 404 nM and the TGI (LOX IMVI melanoma) was 4.44 µM. The GI50 (SN12C renal) was 351 nM, the TGI (SN12C renal) was 1560 nM and the GI50 (MALME-3M melanoma) was 485 nM. For the same compound, the TGI (MALME-3M melanoma) was 1690 nM, the GI50 (NCI-H23 lung) was 371 nM and the TGI (NCI-H23 lung) was 2080 nM. The GI50 (HT29 colon) was 347 nM, the TGI (HT29 colon) was 1310 nM and the GI50 (SK-OV-3 ovarian) was 1470 nM. The TGI (SK-OV-3 ovarian) was 3.03 µM, the GI50 (MOLT-4 leukemia) was 332 nM and the TGI (MOLT-4 leukemia) was over 26 µM. For the same compound, the GI50 (CCRF-CEM leukemia) was 216 nM, the TGI (CCRF-CEM leukemia) was over 24.4 µM and the GI50 (HOP-92 NSCLC) was 231 nM. The TGI (HOP-92 NSCLC) was 724 nM.
